In PubChem BioAssay AID1963862 (Molecular Pharmacology Branch, DTP, NCI, 2024):

System: KRAS patient-derived spheroids with HUVEC/MSC, viability
Experiment: Anticancer human tumor 941728-121-R-J1-PDC patient-derived lung adenocarcinoma cell line growth inhibition [KRAS2]
Settings: for IC50: curve of first compound; for viability, T/C: stronger effect = lower value; active = viability on the fitted dose curve at most 10% of control; inactive = the rest
Summary of the method: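 Combination screen of spheroid viability in tumor-cell co-cultures with endothelial (HUVEC) and mesenchymal stem cell stroma. Each agent was tested in half-log dilutions, topping at clinical Cmax or at 10 microM without a known Cmax.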

[1] = second compound 0.1 µM, first compound 0.0316 µM
[2] = second compound 0.316 µM, first compound 0.0316 µM
[3] = second compound 1 µM, first compound 0.0316 µM
[4] = second compound 3.16 µM, first compound 0.0316 µM
[5] = second compound 10 µM, first compound 0.0316 µM
[6] = second compound 0.1 µM, first compound 0.1 µM
[7] = second compound 0.1 µM, first compound 0.316 µM
[8] = second compound 0.1 µM, first compound 1 µM
[9] = second compound 0.1 µM, first compound 3.16 µM
[10] = second compound 0.1 µM, first compound 10 µM
[11] = second compound 0.316 µM, first compound 0.1 µM
[12] = second compound 0.316 µM, first compound 0.316 µM
[13] = second compound 0.316 µM, first compound 1 µM
[14] = second compound 0.316 µM, first compound 3.16 µM
[15] = second compound 0.316 µM, first compound 10 µM
[16] = second compound 1 µM, first compound 0.1 µM
[17] = second compound 1 µM, first compound 0.316 µM
[18] = second compound 1 µM, first compound 1 µM
[19] = second compound 1 µM, first compound 3.16 µM
[20] = second compound 1 µM, first compound 10 µM
[21] = second compound 3.16 µM, first compound 0.1 µM
[22] = second compound 3.16 µM, first compound 0.316 µM
[23] = second compound 3.16 µM, first compound 1 µM
[24] = second compound 3.16 µM, first compound 3.16 µM
[25] = second compound 3.16 µM, first compound 10 µM
[26] = second compound 10 µM, first compound 0.1 µM
[27] = second compound 10 µM, first compound 0.316 µM
[28] = second compound 10 µM, first compound 1 µM
[29] = second compound 10 µM, first compound 3.16 µM
[30] = second compound 10 µM, first compound 10 µM
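Note: spheroids exposed to agents for seven days before readout.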

CC(=O)Nc1cccc(-n2c(=O)n(C3CC3)c(=O)c3c(Nc4ccc(I)cc4F)n(C)c(=O)c(C)c32)c1 + CNCc1ccccc1-c1csc(C(C)Nc2nc(C)nc3cc(OC)c(OC)cc23)c1
< 0.1 nM: IC50 (second compound 0.316 µM) | IC50 (second compound 1 µM) | IC50 (second compound 3.16 µM) | IC50 (second compound 10 µM)
0.119 nM: IC50 (second compound 0.1 µM)
inactive: viability, T/C (second compound 0.1 µM, first compound 0.0001 µM) 51.3% | viability, T/C (second compound 0.1 µM, first compound 0.000316 µM) 46.8% | viability, T/C (second compound 0.1 µM, first compound 0.001 µM) 38.1% | viability, T/C (second compound 0.1 µM, first compound 0.00316 µM) 37.7% | viability, T/C (second compound 0.1 µM, first compound 0.01 µM) 35.7% | viability, T/C [1] 27.9% | viability, T/C (second compound 0.316 µM, first compound 0.0001 µM) 44.4% | viability, T/C (second compound 0.316 µM, first compound 0.000316 µM) 44.1% | viability, T/C (second compound 0.316 µM, first compound 0.001 µM) 34.2% | viability, T/C (second compound 0.316 µM, first compound 0.00316 µM) 31.8% | viability, T/C (second compound 0.316 µM, first compound 0.01 µM) 30.5% | viability, T/C [2] 21.9% | viability, T/C (second compound 1 µM, first compound 0.0001 µM) 35.3% | viability, T/C (second compound 1 µM, first compound 0.000316 µM) 33% | viability, T/C (second compound 1 µM, first compound 0.001 µM) 26.8% | viability, T/C (second compound 1 µM, first compound 0.00316 µM) 23% | viability, T/C (second compound 1 µM, first compound 0.01 µM) 14%
active: viability, T/C [3] 7.52% | viability, T/C (second compound 3.16 µM, first compound 0.0001 µM) 0.3% | viability, T/C (second compound 3.16 µM, first compound 0.000316 µM) 0.14% | viability, T/C (second compound 3.16 µM, first compound 0.001 µM) 0.76% | viability, T/C (second compound 3.16 µM, first compound 0.00316 µM) 0.17% | viability, T/C (second compound 3.16 µM, first compound 0.01 µM) 0.16% | viability, T/C [4] 0.25% | viability, T/C (second compound 10 µM, first compound 0.0001 µM) 0.16% | viability, T/C (second compound 10 µM, first compound 0.000316 µM) 0.16% | viability, T/C (second compound 10 µM, first compound 0.001 µM) 0.17% | viability, T/C (second compound 10 µM, first compound 0.00316 µM) 0.15% | viability, T/C (second compound 10 µM, first compound 0.01 µM) 0.14% | viability, T/C [5] 0.26%

COC(=O)c1ccc2c(C(=Nc3ccc(N(C)C(=O)CN4CCN(C)CC4)cc3)c3ccccc3)c(O)[nH]c2c1 + CNCc1ccccc1-c1csc(C(C)Nc2nc(C)nc3cc(OC)c(OC)cc23)c1
active: viability, T/C [20] 5.39% | viability, T/C [4] 0.42% | viability, T/C [21] 0.43% | viability, T/C [22] 0.22% | viability, T/C [23] 0.73% | viability, T/C [24] 0.79% | viability, T/C [25] 0.62% | viability, T/C [5] 0.47% | viability, T/C [26] 0.1% | viability, T/C [27] 0.08% | viability, T/C [28] 0.1% | viability, T/C [29] 0.11% | viability, T/C [30] 0.15%
< 31.6 nM: IC50 (second compound 0.316 µM) | IC50 (second compound 1 µM) | IC50 (second compound 3.16 µM) | IC50 (second compound 10 µM)
inactive: viability, T/C [1] 59.9% | viability, T/C [6] 49.5% | viability, T/C [7] 47.1% | viability, T/C [8] 63.4% | viability, T/C [9] 42.4% | viability, T/C [10] 35.8% | viability, T/C [2] 46.4% | viability, T/C [11] 44.1% | viability, T/C [12] 41.5% | viability, T/C [13] 35% | viability, T/C [14] 9.64% | viability, T/C [15] 20.3% | viability, T/C [3] 22.6% | viability, T/C [16] 24.5% | viability, T/C [17] 19.5% | viability, T/C [18] 25.6% | viability, T/C [19] 3.56%
1740 nM: IC50 (second compound 0.1 µM)

COc1cc(Nc2ncc3c(n2)-c2ccc(Cl)cc2C(c2c(F)cccc2OC)=NC3)ccc1C(=O)O + CNCc1ccccc1-c1csc(C(C)Nc2nc(C)nc3cc(OC)c(OC)cc23)c1
< 31.6 nM: IC50 (second compound 0.1 µM) | IC50 (second compound 0.316 µM) | IC50 (second compound 1 µM) | IC50 (second compound 3.16 µM) | IC50 (second compound 10 µM)
inactive: viability, T/C [1] 48.4% | viability, T/C [6] 47.5% | viability, T/C [7] 37.5% | viability, T/C [8] 45.4% | viability, T/C [9] 47.6% | viability, T/C [10] 34.7% | viability, T/C [2] 44.2% | viability, T/C [11] 36% | viability, T/C [12] 32.6% | viability, T/C [13] 32.2% | viability, T/C [14] 36.4% | viability, T/C [15] 33.6% | viability, T/C [3] 31.4% | viability, T/C [16] 28.4% | viability, T/C [17] 27.3% | viability, T/C [18] 27.5% | viability, T/C [19] 25.6% | viability, T/C [20] 15.1%
active: viability, T/C [4] 0.4% | viability, T/C [21] 0.28% | viability, T/C [22] 0.18% | viability, T/C [23] 0.33% | viability, T/C [24] 0.26% | viability, T/C [25] 4.13% | viability, T/C [5] 0.15% | viability, T/C [26] 0.22% | viability, T/C [27] 0.1% | viability, T/C [28] 0.1% | viability, T/C [29] 0.11% | viability, T/C [30] 0.5%

COc1cc2nccc(Oc3ccc(NC(=O)C4(C(=O)Nc5ccc(F)cc5)CC4)cc3)c2cc1OC + CNCc1ccccc1-c1csc(C(C)Nc2nc(C)nc3cc(OC)c(OC)cc23)c1
active: viability, T/C [18] 5.77% | viability, T/C [19] 2.51% | viability, T/C [20] 8.64% | viability, T/C [4] 0.1% | viability, T/C [21] 0.43% | viability, T/C [22] 0.05% | viability, T/C [23] 0.1% | viability, T/C [24] 0.03% | viability, T/C [25] 0.12% | viability, T/C [5] 0.36% | viability, T/C [26] 0.07% | viability, T/C [27] 0.08% | viability, T/C [28] 0.08% | viability, T/C [29] 0.31% | viability, T/C [30] 0.21%
< 31.6 nM: IC50 (second compound 0.316 µM) | IC50 (second compound 1 µM) | IC50 (second compound 3.16 µM) | IC50 (second compound 10 µM)
85.5 nM: IC50 (second compound 0.1 µM)
inactive: viability, T/C [1] 59.8% | viability, T/C [6] 46.5% | viability, T/C [7] 42.2% | viability, T/C [8] 39.7% | viability, T/C [9] 19.2% | viability, T/C [10] 39.2% | viability, T/C [2] 39% | viability, T/C [11] 34.5% | viability, T/C [12] 28.8% | viability, T/C [13] 21.3% | viability, T/C [14] 12.4% | viability, T/C [15] 25.4% | viability, T/C [3] 16.1% | viability, T/C [16] 21% | viability, T/C [17] 10.2%
